Results taken from patent publication US20230286923A1 (INIPHARM, INC., priority 2020, published 2023).

Tests used:
HSD17B13 enzyme [1] = target: T1, HSD17B13 enzyme (Homo sapiens (Human), UniProt Q7Z5P4); experiment: NADH detection assay (fluorescence based LTB3 assay) for HSD17B13 activity; format: biochemical; settings: substrate 25 µM LTB3, 3 mM NAD+, 125 nM enzyme
Description: The fluorescence based Leukotriene B3 (LTB3) assay monitors the fluorescence of NADH, which is generated from NAD+ during the dehydrogenation of the substrate LTB3. The reactions were performed in a 384-well plates (Greiner; #655076) in a 20 µl reaction volume containing the following reagents (final concentrations): 25 µM LTB3 (Cayman; #20109); 3 mM NAD^+ (Sigma; #N0623); 125 nM HSD17B13 enzyme (in-house; E. coli expressed His-tagged, purified, soluble protein); 1 M potassium phosphate buffer, pH 7.4; and 1% DMSO. Reactions were initiated by co-addition of NAD+ and enzyme, and monitored for 1 hour at 26.5° C. Generation of NADH was measured as the fluorescence signal (Excitation at 340 nm and Emission at 445 nm) at 1 hour minus the baseline fluorescence at t=0. Fluorescence signals in the absence of LTB3 (negative control values), were subtracted from all values so that the results reflected substrate-dependent production of NADH. NADH standards were included to allow the conversion of relative fluorescence units into rates of enzyme activity. Enzyme activity in the presence of test compounds was expressed as a percentage of the uninhibited enzyme activity, and plotted versus inhibitor concentration. Non-linear regression was performed using a four-parameter logistic model and Microsoft Excel Solver software Ten concentrations of inhibitor were tested in duplicate (in the range of 30 µM - 2.5 nM), and two independent concentration response assays were performed.

HSD17B13 enzyme [2] = target: T1, HSD17B13 enzyme; experiment: Estrone detection assay (LC/MS, conversion of estradiol to estrone) for HSD17B13 activity; format: biochemical; settings: substrate 4 µM estradiol, 6 mM NAD+, 30 nM enzyme
Description: The liquid chromatography/mass spectrometry (LC/MS) estrone detection assay monitors the conversion of estradiol to estrone by HSD17B13. This assay was undertaken in a 96wp format (Eppendorf deep well Plate 96/500) in an 80 µl reaction volume containing: 4 µM of Estradiol (E2; Cayman; #10006315), 6 mM NAD^+ (Sigma; #N0623) and 30 nM HSD17B13 enzyme (in-house; E. coli expressed His-tagged, purified, soluble protein) in a reaction containing 1 M potassium phosphate buffer pH 7.4, with 0.5% vehicle (DMSO). Reactions were incubated for 2 hours at 26.5° C., and estradiol (E2) conversion to estrone (E1) was quantitated by LC-MS/MS based analyte detection for both E2 and E1 using LCMS grade reagents.
Reactions were terminated by the addition of two volumes of acetonitrile (MeCN; LCMS grade; CAS# 75/05/8) containing deuterated (D4)-E1 used as internal standard (Clear Synth; #CS-T-54273; 500 ng/mL final concentration). Samples were applied to pre-prepared Bond Elut-C18 extraction cartridges (3 mL; Agilent; #12102028), washed and eluted in MeCN. Eluates were dried under nitrogen and re-suspended in 60% methanol (LCMS grade methanol; CAS# 67/56/1) before submission for analysis. Aqueous linearity for E2 and E1 were included for quantification.
Analysis of samples was undertaken on a XBridge BEH C18 column (Waters; #186003033) using 0.1% Diethyl Amine in MeCN (mobile phase A; DEA CAS# 109-89-7) and 0.1% Diethyl Amine in milli-Q water (mobile phase B) in a 3 min gradient allowing 25%B. Analytes were detected in negative mode using MRM analysis, with E2 having a RT of 1.85 min and E1 having a RT of 2 min. Activity of the enzyme, in the absence of NAD^+, was used to evaluate specificity of conversion. Enzyme activity in the presence of test samples was expressed as a percentage of the uninhibited enzyme activity, and plotted versus inhibitor concentration. Non-linear regression was performed using a four-parameter logistic model and GraphPad Prism software (GraphPad Software, La Jolla, CA). All assessments were undertaken in duplicate evaluations and pooled during extraction process and subsequently injected as duplicates for LC-MS/MS analysis.

T1 sequence (Q7Z5P4 20-300): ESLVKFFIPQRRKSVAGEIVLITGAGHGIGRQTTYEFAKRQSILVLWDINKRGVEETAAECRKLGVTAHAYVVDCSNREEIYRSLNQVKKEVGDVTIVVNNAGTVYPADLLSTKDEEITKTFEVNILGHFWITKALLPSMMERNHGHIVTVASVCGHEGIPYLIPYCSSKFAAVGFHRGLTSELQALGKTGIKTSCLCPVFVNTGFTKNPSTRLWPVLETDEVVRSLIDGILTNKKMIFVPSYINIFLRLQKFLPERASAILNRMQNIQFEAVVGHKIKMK

Structure (SMILES)	IC50 (HSD17B13 enzyme [1])	IC50 (HSD17B13 enzyme [2])
COc1ccccc1CCn1cnc2cccc(NC(=O)c3ccc(-c4cc[nH]n4)c(F)c3)c2c1=O [Example 22, 3-fluoro-N-(3-(2-methoxyphenethyl)-4-oxo-3,4-dihydroquinazolin-5-yl)-4-(1H-pyrazol-3-yl)benzamide]	1 to 5 µM	> 10 µM
CC(C)(C)CCn1cnc2cccc(NC(=O)c3ccc(S(=O)(=O)NC(=O)c4ccccc4)c(Cl)c3)c2c1=O [Example 18, 4-(N-benzoylsulfamoyl)-3-chloro-N-(3-(3,3-dimethylbutyl)-4-oxo-3,4-dihydroquinazolin-5-yl)benzamide]	> 10 µM	1 to 10 µM
CC(C)(C)CCn1cnc2cccc(NC(=O)c3cc(Cl)c(O)nn3)c2c1=O [Example 15, 5-chloro-N-(3-(3,3-dimethylbutyl)-4-oxo-3,4-dihydroquinazolin-5-yl)-6-hydroxypyridazine-3-carboxamide]	> 10 µM	1 to 10 µM
COc1ccccc1CCn1cnc2cccc(NC(=O)c3cc(Cl)c(O)c(C(C)C)c3)c2c1=O [Example 24, 3-chloro-4-hydroxy-5-isopropyl-N-(3-(2-methoxyphenethyl)-4-oxo-3,4-dihydroquinazolin-5-yl)benzamide]	> 10 µM	> 10 µM
O=C(Nc1cccc2ncn(-c3ccccc3)c(=O)c12)c1ccc(O)c(Cl)c1 [Example 8, 3-chloro-4-hydroxy-N-(4-oxo-3-phenyl-3,4-dihydroquinazolin-5-yl)benzamide]	> 10 µM	0.1 to 1 µM
COc1ccccc1CCn1cnc2cccc(NC(=O)c3ccc(P(=O)(O)O)c(F)c3)c2c1=O [Example 23, (2-fluoro-4-((3-(2-methoxyphenethyl)-4-oxo-3,4-dihydroquinazolin-5-yl)carbamoyl)phenyl)phosphonic acid]	> 10 µM	> 10 µM
COc1ccccc1CCn1cnc2cccc(NC(=O)c3ccc(S(N)(=O)=O)c(Cl)c3)c2c1=O [Example 29, 3-chloro-N-(3-(2-methoxyphenethyl)-4-oxo-3,4-dihydroquinazolin-5-yl)-4-sulfamoylbenzamide]	> 10 µM	> 10 µM
COc1ccccc1CCn1cnc2cccc(NC(=O)c3ccnc(C(F)(F)F)c3)c2c1=O [Example 7, N-(3-(2-methoxyphenethyl)-4-oxo-3,4-dihydroquinazolin-5-yl)-2-(trifluoromethyl)isonicotinamide]	> 10 µM	> 10 µM
O=C(Nc1cccc2ncn(CC3CC3)c(=O)c12)c1ccc(S(=O)(=O)NC(=O)c2ccccc2)c(Cl)c1 [Example 14, 4-(N-benzoylsulfamoyl)-3-chloro-N-(3-(cyclopropylmethyl)-4-oxo-3,4-dihydroquinazolin-5-yl)benzamide]	1 to 5 µM	1 to 10 µM
COc1ccccc1CCn1cnc2cccc(NC(=O)c3ccc(-c4nnn[nH]4)c(Cl)c3)c2c1=O [Example 27, 3-chloro-N-(3-(2-methoxyphenethyl)-4-oxo-3,4-dihydroquinazolin-5-yl)-4-(1H-tetrazol-5-yl)benzamide]	1 to 5 µM	1 to 10 µM
COc1ccccc1CCn1cnc2cccc(NC(=O)c3ccc(OCC(=O)O)c(F)c3)c2c1=O [Example 4, 2-(2-fluoro-4-((3-(2-methoxyphenethyl)-4-oxo-3,4-dihydroquinazolin-5-yl)carbamoyl)phenoxy)acetic acid]	> 10 µM	1 to 10 µM
O=C(Nc1cccc2ncn(-c3cccnc3)c(=O)c12)c1ccc(O)c(Cl)c1 [Example 9, 3-chloro-4-hydroxy-N-(4-oxo-3-(pyridin-3-yl)-3,4-dihydroquinazolin-5-yl)benzamide]	> 10 µM	0.1 to 1 µM
COc1ccccc1CCn1cnc2c(c(NC(=O)c3ccc(O)c(F)c3)nn2C)c1=O [Example 28, 3-fluoro-4-hydroxy-N-(5-(2-methoxyphenethyl)-1-methyl-4-oxo-4,5-dihydro-1H-pyrazolo[3,4-d]pyrimidin-3-yl)benzamide]	5 to 10 µM	0.1 to 1 µM
CC(C)(C)CCn1cnc2cccc(NC(=O)c3ccc(-c4nnn[nH]4)c(Cl)c3)c2c1=O [Example 13, 3-chloro-N-(3-(3,3-dimethylbutyl)-4-oxo-3,4-dihydroquinazolin-5-yl)-4-(1H-tetrazol-5-yl)benzamide]		1 to 10 µM
O=C(Nc1cccc2ncn(Cc3cocn3)c(=O)c12)c1cc(Cl)c(O)c(C(F)(F)F)c1 [Example 42]		1 to 10 µM

Next, values leading:

IC50 (HSD17B13 enzyme [1])	IC50 (HSD17B13 enzyme [2])	Structure (SMILES)
≤ 1 µM	≤ 0.1 µM	COc1ccccc1Cn1cnc2cccc(NC(=O)c3ccc(O)c(Cl)c3)c2c1=O [Example 6, 3-chloro-4-hydroxy-N-(3-(2-methoxybenzyl)-4-oxo-3,4-dihydroquinazolin-5-yl)benzamide]
≤ 1 µM	≤ 0.1 µM	O=C(Nc1cccc2ncn(Cc3ccccc3)c(=O)c12)c1ccc(O)c(Cl)c1 [Example 3, N-(3-benzyl-4-oxo-3,4-dihydroquinazolin-5-yl)-3-chloro-4-hydroxybenzamide]
1 to 5 µM	0.1 to 1 µM	COc1ccccc1CCn1cnc2cccc(NC(=O)c3cc(Cl)c(O)c(Cl)c3)c2c1=O [Example 33, 3,5-dichloro-4-hydroxy-N-(3-(2-methoxyphenethyl)-4-oxo-3,4-dihydroquinazolin-5-yl)benzamide]
≤ 1 µM	≤ 0.1 µM	COc1ccccc1CCn1cnc2cccc(NC(=O)c3ccc(O)c(F)c3)c2c1=O [Example 2, 3-fluoro-4-hydroxy-N-(3-(2-methoxyphenethyl)-4-oxo-3,4-dihydroquinazolin-5-yl)benzamide]
1 to 5 µM	0.1 to 1 µM	Cn1c(-c2cccnc2)nc2cccc(NC(=O)c3ccc(O)c(Cl)c3)c2c1=O [Example 11, 3-chloro-4-hydroxy-N-(3-methyl-4-oxo-2-(pyridin-3-yl)-3,4-dihydroquinazolin-5-yl)benzamide]
> 10 µM	0.1 to 1 µM	O=C(Nc1cccc2ncn(Cc3ccncc3)c(=O)c12)c1ccc(O)c(F)c1 [Example 20, 3-fluoro-4-hydroxy-N-(4-oxo-3-(pyridin-4-ylmethyl)-3,4-dihydroquinazolin-5-yl)benzamide]
≤ 1 µM	≤ 0.1 µM	CC(C)(C)CCn1cnc2cccc(NC(=O)c3ccc(O)c(Cl)c3)c2c1=O [Example 10, 3-chloro-N-(3-(3,3-dimethylbutyl)-4-oxo-3,4-dihydroquinazolin-5-yl)-4-hydroxybenzamide]
≤ 1 µM	≤ 0.1 µM	O=C(Nc1cccc2ncn(Cc3cccnc3)c(=O)c12)c1ccc(O)c(Cl)c1 [Example 30, 3-chloro-4-hydroxy-N-(4-oxo-3-(pyridin-3-ylmethyl)-3,4-dihydroquinazolin-5-yl)benzamide]
≤ 1 µM	≤ 0.1 µM	COc1ccccc1CCn1cnc2cccc(NC(=O)c3ccc(O)c(Cl)c3)c2c1=O [Example 1, 3-chloro-4-hydroxy-N-(3-(2-methoxyphenethyl)-4-oxo-3,4-dihydroquinazolin-5-yl)benzamide]
	≤ 0.1 µM	O=C(Nc1cccc2ncn(Cc3ccccc3OC(F)(F)F)c(=O)c12)c1cc(F)c(O)c(C(F)(F)F)c1 [Example 64, 3-fluoro-4-hydroxy-N-(4-oxo-3-(2-(trifluoromethoxy)benzyl)-3,4-dihydroquinazolin-5-yl)-5-(trifluoromethyl)benzamide]
	≤ 0.1 µM	N#Cc1cc(C(=O)Nc2cccc3ncn(Cc4ccc(F)cc4)c(=O)c23)cc(F)c1O [Example 44, 3-cyano-5-fluoro-N-(3-(4-fluorobenzyl)-4-oxo-3,4-dihydroquinazolin-5-yl)-4-hydroxybenzamide]
